{"source": "paper PMC11984586", "about": "“A novel spider toxin as a selective antagonist of the Kv1 subfamily of voltage-gated potassium channels through gating modulation” (The Journal of Biological Chemistry, 2025)", "assay_in_all_cases": "Whole-cell patch clamp, Kv1.3 alanine mutant", "format_in_all_cases": "cell-based", "key": {"Kv1.3/E346A": {"target": "T1, Kv1.3/E346A (Homo sapiens, UniProt P22001, E346A)", "T1 construct": "expressed in transfected cells; host or cells: CHO-K1", "T1 sequence (P22001 whole entry E346A, the tested form may be a part)": "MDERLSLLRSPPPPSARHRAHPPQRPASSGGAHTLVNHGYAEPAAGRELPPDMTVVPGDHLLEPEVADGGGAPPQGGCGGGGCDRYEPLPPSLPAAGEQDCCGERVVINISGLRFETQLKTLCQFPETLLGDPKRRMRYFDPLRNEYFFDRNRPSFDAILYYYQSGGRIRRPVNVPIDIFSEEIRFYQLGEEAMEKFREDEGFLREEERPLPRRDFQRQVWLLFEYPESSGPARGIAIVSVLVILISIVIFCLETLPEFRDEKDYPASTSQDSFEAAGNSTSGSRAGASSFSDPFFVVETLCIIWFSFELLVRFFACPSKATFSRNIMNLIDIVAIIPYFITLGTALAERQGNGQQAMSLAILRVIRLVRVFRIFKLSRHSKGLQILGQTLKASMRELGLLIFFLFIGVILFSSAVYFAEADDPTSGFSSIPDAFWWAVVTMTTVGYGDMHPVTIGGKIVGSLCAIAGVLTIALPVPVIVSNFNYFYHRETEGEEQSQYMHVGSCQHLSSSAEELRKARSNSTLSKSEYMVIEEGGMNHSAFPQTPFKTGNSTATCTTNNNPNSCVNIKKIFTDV", "description": "(§1) MrVIII inhibits Kv1 channels by stabilizing the voltage sensor in its resting state. […] To investigate this hypothesis, we constructed a series of alanine mutants in the S3-S4 region of the Kv1.3 channel, covering residues I336 to L363, to identify critical interactions between the peptide and the channel (Fig. 6A). […] For the remaining mutants that retained functional current expression, we evaluated the inhibitory activity of 100 nM MrVIII. […] The lack of conserved multiple interaction sites may explain the absence of activity on other Kv subfamily channels (Fig. S3). In summary, this study identified key amino acid residues in the S3-S4 region of the Kv1.3 channel that interact with MrVIII, providing a foundation for further exploration into the peptide's mechanism of action.\n(§2) The cDNA of hKv1.1, hKv1.2, hKv1.3, rKv1.4, hKv1.5, mKv1.6, and hKv1.7 were subcloned into mammalian expression vectors pcDNA3.1 or pCMV-blank vectors, as well as other plasmids described previously ([35]). Channel mutants were generated by site-directed mutations. Briefly, the parental channel plasmid was amplified using a pair of oppositely directed primers harboring the designed mutation site, with KOD Fx (TOYOBO Co, Ltd). The resulting PCR mix was treated with FastDigest DpnI (Thermo Fisher Scientific) to remove the methylated template. Ten microliters of the digested product was then used to transform 100 μl E. coli DH5α competent cells. Transformants were randomly picked and sequenced to confirm the presence of the intended mutation.\n(§3) CHO-K1 cells were selected for expressing Kv channels due to their lack of endogenous Kv channels, while HEK293 or ND7/23 cells were used for Nav and Cav channel expression. CHO-K1 cells were cultured in a Dulbecco's modified Eagle's medium/Ham's F-12 nutrient mixture (DMEM-F12) medium, and HEK293T and ND7/23 cells in DMEM medium, all supplemented with 10% fetal bovine serum and 1% penicillin-streptomycin (all from Gibco, Thermo Fisher Scientific, Inc) under standard conditions (37 °C, 5% CO2, and saturated humidity). These cell lines were purchased from Stem Cell Bank, Chinese Academy of Sciences. Channel plasmids were cotransfected with pEGFP-N1 (encoding GFP) into the respective cells using lipofectamine 2000, following the manufacturer's instructions (Invitrogen, Thermo Fisher Scientific, Inc.). Nav1.9-GFP plasmid was transfected into ND7/23 using the X-tremeGENE HP DNA Transfection Reagent (Roche). After 4 to 6 h transfection, cells were seeded onto poly-lysine–coated coverslips, and 24 to 36 h later, transfected cells were ready for patch-clamp analysis.\n(§4) Patch clamp experiments were conducted using an electrophysiology platform comprising a MultiClamp 700B amplifier and an Axon Digidata 1550 AD/DA convertor (Axon Instruments). Data acquisition was performed with pClamp 10.5 software (Axon Instruments). All experiments were performed at room temperature.\n(§5) For Kv current recordings, the bath solution contained (in mM) the following: 140 NaCl, 5 KCl, 1 MgCl2, 2 CaCl2, 10 glucose, and 10 Hepes (pH 7.3, adjusted with NaOH), and the pipette solution contained (in mM) the following: 140 KCl, 2.5 MgCl2, 11 EGTA, and 10 Hepes (pH 7.3, adjusted with KOH). Series resistance was maintained below 10 MΩ and compensated to 80%. Concentration–response curves were fitted by the Hill equation to determine the toxin's potency. Whole cell conductance (G) at each depolarizing voltage (V) was determined using the equation: G = I/(V−Vrev), where I is the current amplitude, and Vrev is the reversal potential. The reversal potential for K^+ current was estimated to be −85.6 mV using the Nernst equation. G-V curves were obtained by plotting the normalized conductance as a function of V and fitted by the Boltzmann equation: y = 1/(1+ exp((Va-V)/k)), which Va is the midpoint voltage, V is the test potential, and k is the slope factor. The steady-state fast inactivation of Kv1.3 was measured using a two-pulses protocol. […]"}, "Kv1.3/T342A": {"target": "T2, Kv1.3/T342A (Homo sapiens, UniProt P22001, T342A)", "T2 construct": "expressed in transfected cells; host or cells: CHO-K1", "T2 sequence (P22001 whole entry T342A)": "as the sequence (P22001 whole entry E346A, the tested form may be a part) above, with T342A, A346E counted along it", "description": "as §1, §2, §3, §4, §5"}, "Kv1.3/L343A": {"target": "T3, Kv1.3/L343A (Homo sapiens, UniProt P22001, L343A)", "T3 construct": "expressed in transfected cells; host or cells: CHO-K1", "T3 sequence (P22001 whole entry L343A)": "as the sequence (P22001 whole entry E346A, the tested form may be a part) above, with L343A, A346E counted along it", "description": "as §1, §2, §3, §4, §5"}, "Kv1.3/L347A": {"target": "T4, Kv1.3/L347A (Homo sapiens, UniProt P22001, L347A)", "T4 construct": "expressed in transfected cells; host or cells: CHO-K1", "T4 sequence (P22001 whole entry L347A)": "as the sequence (P22001 whole entry E346A, the tested form may be a part) above, with A346E, L347A counted along it", "description": "as §1, §2, §3, §4, §5"}, "Kv1.3/I341A": {"target": "T5, Kv1.3/I341A (Homo sapiens, UniProt P22001, I341A)", "T5 construct": "expressed in transfected cells; host or cells: CHO-K1", "T5 sequence (P22001 whole entry I341A)": "as the sequence (P22001 whole entry E346A, the tested form may be a part) above, with I341A, A346E counted along it", "description": "as §1, §2, §3, §4, §5"}, "Kv1.3/L360A": {"target": "T6, Kv1.3/L360A (Homo sapiens, UniProt P22001, L360A)", "T6 construct": "expressed in transfected cells; host or cells: CHO-K1", "T6 sequence (P22001 whole entry L360A)": "as the sequence (P22001 whole entry E346A, the tested form may be a part) above, with A346E, L360A counted along it", "description": "as §1, §2, §3, §4, §5"}, "[1]": {"conditions": "100 nM MrVIII on mutant compared with 10 nM on WT Kv1.3, +30 mV, n = 4–7"}}, "note": "Bridge positions count the residues as written; N and C are the ends. Peptide text beside a SMILES is read from it.", "data": [{"smiles": "CC[C@H](C)[C@@H]1NC(=O)[C@H](Cc2ccc(O)cc2)NC(=O)[C@H](CCC(N)=O)NC(=O)[C@@H]2CCCN2C(=O)[C@@H]2CSSC[C@H](NC(=O)[C@H](C)NC(=O)[C@H](CO)NC(=O)[C@H](CCC(=O)O)NC(=O)[C@H](CCC(=O)O)NC(=O)[C@@H](N)[C@@H](C)O)C(=O)NCC(=O)NCC(=O)N[C@@H](Cc3ccccc3)C(=O)N[C@@H](CC(N)=O)C(=O)N[C@@H](C)C(=O)N[C@@H](CCCNC(=N)N)C(=O)N[C@H]3CSSC[C@H](NC1=O)C(=O)N[C@@H](CCCCN)C(=O)NCC(=O)N[C@@H](Cc1c[nH]c4ccccc14)C(=O)N[C@@H](CCCNC(=N)N)C(=O)N[C@@H]([C@@H](C)O)C(=O)N[C@@H](CCCCN)C(=O)N[C@@H](CCCNC(=N)N)C(=O)N[C@H](C(=O)N[C@@H](CC(C)C)C(=O)N[C@@H](CC(N)=O)C(=O)N1CCC[C@H]1C(=O)O)CSSC[C@H](NC(=O)[C@H](CCCCN)NC(=O)[C@H](Cc1c[nH]cn1)NC(=O)[C@H](CC(C)C)NC(=O)[C@@H]1CCCN1C3=O)C(=O)N2", "note": "[MrVIII] (H-TEESACGGFNARCPLHKCCPQYICKGWRTKRCLNP-OH; disulfide 6-19, 13-24, 18-32; N-terminus and C-terminus assumed)", "values": [{"measurement": "decrease of inhibitory potency vs WT Kv1.3, E346A", "setting": "Kv1.3/E346A; [1]", "value": "more than 10 fold"}, {"measurement": "IC50", "setting": "Kv1.3/E346A; +30 mV, 500 ms, mean ± SD, n = 4–6, SD, read-out: IC50, Kv1.3/E346A current", "value": "51.1 ± 21.1", "unit": "nM"}, {"measurement": "decrease of inhibitory potency vs WT Kv1.3, T342A", "setting": "Kv1.3/T342A; [1]", "value": "more than 10 fold"}, {"measurement": "IC50", "setting": "Kv1.3/T342A; current at 50 ms, +30 mV, mean ± SD, n = 4–6, SD", "value": "143 ± 38.2", "unit": "nM"}, {"measurement": "inhi%(495 ms), Kv1.3/T342A current", "setting": "Kv1.3/T342A; current at 495 ms, +30 mV, mean ± SD, n = 4–6, SD", "value": "27.7 ± 12.9", "unit": "%"}, {"measurement": "decrease of inhibitory potency vs WT Kv1.3, L343A", "setting": "Kv1.3/L343A; [1]", "value": "more than 10 fold"}, {"measurement": "IC50", "setting": "Kv1.3/L343A; +30 mV, 500 ms, mean ± SD, n = 4–6, SD, read-out: IC50, Kv1.3/L343A current", "value": "135 ± 34", "unit": "nM"}, {"measurement": "decrease of inhibitory potency vs WT Kv1.3, L347A", "setting": "Kv1.3/L347A; [1]", "value": "more than 10 fold"}, {"measurement": "IC50", "setting": "Kv1.3/L347A; +30 mV, 500 ms, mean ± SD, n = 4–6, SD, read-out: IC50, Kv1.3/L347A current", "value": "85.7 ± 41.3", "unit": "nM"}, {"measurement": "decrease of inhibitory potency vs WT Kv1.3, I341A", "setting": "Kv1.3/I341A; [1]", "value": "more than 10 fold"}, {"measurement": "IC50", "setting": "Kv1.3/I341A; +30 mV, 500 ms, mean ± SD, n = 4–6, SD, read-out: IC50, Kv1.3/I341A current", "value": "41 ± 26.3", "unit": "nM"}, {"measurement": "decrease of inhibitory potency vs WT Kv1.3, L360A", "setting": "Kv1.3/L360A; [1]", "value": "more than 10 fold"}, {"measurement": "IC50", "setting": "Kv1.3/L360A; +30 mV, 500 ms, mean ± SD, n = 4–6, SD, read-out: IC50, Kv1.3/L360A current", "value": "148 ± 60.4", "unit": "nM"}]}]}
